Experimental data from patent US20250152526A1, “USES OF IVALTINOSTAT FOR TREATING PANCREATIC CANCER” (CG PHARMACEUTICALS, INC, priority 2022, published 2025).

Tests used:
pancreatic cancer = conditions: 1250 mg/m^2 twice daily for 2 weeks followed by 1-week rest, first line; cited from earlier work
CYP1A2 = molecular target: T1, CYP1A2 (Homo sapiens, UniProt P05177); test: in vitro CYP inhibition; format: in vitro ADME
T1 sequence (P05177 1-516): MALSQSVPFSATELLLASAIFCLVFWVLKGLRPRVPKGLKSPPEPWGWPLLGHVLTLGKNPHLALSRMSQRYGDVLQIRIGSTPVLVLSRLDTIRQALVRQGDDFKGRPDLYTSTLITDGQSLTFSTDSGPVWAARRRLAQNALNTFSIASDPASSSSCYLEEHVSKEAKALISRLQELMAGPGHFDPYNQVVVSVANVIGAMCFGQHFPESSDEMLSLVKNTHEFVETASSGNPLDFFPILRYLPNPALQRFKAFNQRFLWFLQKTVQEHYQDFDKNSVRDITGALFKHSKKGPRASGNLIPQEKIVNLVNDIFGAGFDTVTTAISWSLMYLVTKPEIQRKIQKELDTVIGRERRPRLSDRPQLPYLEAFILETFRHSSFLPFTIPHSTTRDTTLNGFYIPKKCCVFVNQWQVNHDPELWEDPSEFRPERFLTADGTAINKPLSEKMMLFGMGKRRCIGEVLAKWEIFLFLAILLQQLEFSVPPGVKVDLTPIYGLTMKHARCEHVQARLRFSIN
Excerpt: (§1) Concomitant use of drugs that are moderate or strong inhibitors or inducers of these CYP enzymes should be avoided. […] Concomitant use of drugs that are substrates of CYP2D6 and have a narrow therapeutic index is not advised.

CYP2C19 = CYP2C19 (Homo sapiens, UniProt P33261); test: in vitro CYP inhibition; format: in vitro ADME
CYP2C19, sequence (P33261 whole entry): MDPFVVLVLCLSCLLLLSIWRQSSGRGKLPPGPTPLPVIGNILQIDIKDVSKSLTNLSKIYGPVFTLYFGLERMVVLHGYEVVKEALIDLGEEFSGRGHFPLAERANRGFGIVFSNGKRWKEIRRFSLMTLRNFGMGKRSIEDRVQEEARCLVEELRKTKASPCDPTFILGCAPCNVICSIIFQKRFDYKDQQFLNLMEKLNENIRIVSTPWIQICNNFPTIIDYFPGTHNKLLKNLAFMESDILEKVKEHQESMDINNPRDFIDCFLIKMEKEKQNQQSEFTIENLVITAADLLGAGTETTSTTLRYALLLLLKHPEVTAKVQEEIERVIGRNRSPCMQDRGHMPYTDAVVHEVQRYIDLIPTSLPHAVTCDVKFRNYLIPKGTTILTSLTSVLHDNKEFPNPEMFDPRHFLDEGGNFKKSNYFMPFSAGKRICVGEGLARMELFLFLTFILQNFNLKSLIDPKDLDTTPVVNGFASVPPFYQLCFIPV
Excerpt: as §1

CYP2C9 = CYP2C9 (Homo sapiens, UniProt P11712); test: in vitro CYP inhibition; format: in vitro ADME
CYP2C9, sequence (P11712 whole entry): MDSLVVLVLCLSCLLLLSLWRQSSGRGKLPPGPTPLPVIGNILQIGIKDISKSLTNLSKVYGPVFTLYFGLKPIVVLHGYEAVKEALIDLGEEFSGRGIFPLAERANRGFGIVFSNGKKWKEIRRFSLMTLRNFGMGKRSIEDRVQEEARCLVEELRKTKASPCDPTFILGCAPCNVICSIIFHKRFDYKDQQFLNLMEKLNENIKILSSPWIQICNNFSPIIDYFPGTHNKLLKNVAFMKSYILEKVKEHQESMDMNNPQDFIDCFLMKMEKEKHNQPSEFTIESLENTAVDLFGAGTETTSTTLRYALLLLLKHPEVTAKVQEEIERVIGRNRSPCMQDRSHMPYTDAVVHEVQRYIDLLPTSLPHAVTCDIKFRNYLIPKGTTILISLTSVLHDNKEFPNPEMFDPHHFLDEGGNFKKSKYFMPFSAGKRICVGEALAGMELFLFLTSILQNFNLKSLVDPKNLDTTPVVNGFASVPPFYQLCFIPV
Excerpt: as §1

CYP2D6 [1] = molecular target: T2, CYP2D6 (Homo sapiens, UniProt P10635); test: in vitro CYP inhibition; format: in vitro ADME
T2 sequence (P10635 whole entry): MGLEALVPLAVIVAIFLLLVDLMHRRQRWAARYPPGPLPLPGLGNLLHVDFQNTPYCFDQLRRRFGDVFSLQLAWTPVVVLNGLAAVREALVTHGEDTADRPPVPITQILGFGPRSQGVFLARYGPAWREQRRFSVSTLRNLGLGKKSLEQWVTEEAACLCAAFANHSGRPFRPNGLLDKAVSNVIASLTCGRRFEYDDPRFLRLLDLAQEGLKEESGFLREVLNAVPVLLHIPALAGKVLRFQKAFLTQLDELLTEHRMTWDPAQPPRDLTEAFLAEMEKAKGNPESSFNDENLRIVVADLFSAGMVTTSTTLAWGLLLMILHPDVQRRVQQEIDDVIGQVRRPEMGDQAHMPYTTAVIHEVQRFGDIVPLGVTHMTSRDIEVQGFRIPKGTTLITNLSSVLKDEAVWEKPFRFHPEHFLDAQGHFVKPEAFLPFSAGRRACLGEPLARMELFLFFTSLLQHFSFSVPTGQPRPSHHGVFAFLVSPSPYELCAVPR
Excerpt: as §1

CYP3A4 = CYP3A4 (Homo sapiens, UniProt P08684); test: in vitro CYP inhibition; format: in vitro ADME
CYP3A4, sequence (P08684 whole entry): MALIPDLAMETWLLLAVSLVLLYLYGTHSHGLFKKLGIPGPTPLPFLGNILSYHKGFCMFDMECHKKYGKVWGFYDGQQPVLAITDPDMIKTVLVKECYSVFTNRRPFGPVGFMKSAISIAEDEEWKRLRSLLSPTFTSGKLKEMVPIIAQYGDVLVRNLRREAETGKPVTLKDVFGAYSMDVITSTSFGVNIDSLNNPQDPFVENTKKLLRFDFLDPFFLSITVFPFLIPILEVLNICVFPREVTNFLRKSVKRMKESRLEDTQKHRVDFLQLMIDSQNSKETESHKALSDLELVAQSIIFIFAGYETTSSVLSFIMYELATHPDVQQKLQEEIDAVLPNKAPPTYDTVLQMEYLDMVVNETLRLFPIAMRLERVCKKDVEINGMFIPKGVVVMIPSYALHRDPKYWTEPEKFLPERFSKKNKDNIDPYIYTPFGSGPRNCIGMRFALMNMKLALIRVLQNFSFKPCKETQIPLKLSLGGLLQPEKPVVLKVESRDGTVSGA
Excerpt: as §1

CYP2D6 [2] = molecular target: T2, CYP2D6; test: nonclinical CYP substrate studies; format: in vitro ADME
Excerpt: as §1

CYP3A = test: nonclinical CYP substrate studies; format: in vitro ADME
Excerpt: as §1

[3] = Phase 1/2 study of ivaltinostat (IV) in combination with gemcitabine and erlotinib
Procedure: Ivaltinostat was administered on Days 1, 8 and 15 of a 28-day cycle in combination with gemcitabine (1000 mg/m^2; IV on Days 1, 8, and 15) and erlotinib (100 mg orally QD).
In the Phase 2 component of the study, 24 subjects received ivaltinostat at a dose level of 250 mg/m^2 in combination of gemcitabine (1000 mg/m^2; IV on Days 1, 8, and 15) and erlotinib (100 mg orally QD). In Phase 2, planned treatment duration was up to 6 cycles, but treatment could continue beyond 6 cycles if there was no progression of disease, at the discretion of the subject and treating physician.

[4] = system: germline BRCA-mutated metastatic pancreatic cancer; conditions: cited from earlier work
[5] = system: metastatic pancreatic cancer; conditions: first line; cited from earlier work
[6] = Phase 2, 250 mg/m^2 plus gemcitabine and erlotinib
[7] = Phase 2, 16 evaluable subjects, plus gemcitabine and erlotinib
[8] = Phase 2, 16 subjects with at least one tumor evaluation, plus gemcitabine and erlotinib

CCCCCOC(=O)Nc1nc(=O)n([C@@H]2O[C@H](C)[C@@H](O)[C@H]2O)cc1F [Capecitabine, capecitabine]
efficacy and tolerability of dose schedule (pancreatic cancer): effective and tolerable

CN(C)CCCNC(=O)/C(=C/CCCCC(=O)NO)COc1cccc2ccccc12.O=P(O)(O)O [ivaltinostat, (E)-N1-(3-(dimethylamino)propyl)-N8-hydroxy-2-((naphthalen-1-yloxy)methyl)oct-2-enediamide phosphate]
IC50 (CYP1A2): > 10 µM | IC50 (CYP2C19): > 90 µM | IC50 (CYP2C9): > 90 µM | IC50 (CYP2D6 [1]): 5.5 µM | IC50 (CYP3A4): > 10 µM | substrate for CYP2D6 (CYP2D6 [2]): substrate | substrate for CYP3A (CYP3A): substrate | anemia, grade 3 treatment-related AE frequency [3, 6]: 17% | anemia, grade 4 treatment-related AE frequency [3, 6]: 0% | deaths related to SAEs considered related to the investigational drugs [3, 6]: no deaths | discontinuation of study drug due to an AE [3, 6]: No subjects discontinued | neutrophil count decreased, grade 3 treatment-related AE frequency [3, 6]: 13% | neutrophil count decreased, grade 4 treatment-related AE frequency [3, 6]: 17% | platelet count decreased, grade 3 treatment-related AE frequency [3, 6]: 17% | platelet count decreased, grade 4 treatment-related AE frequency [3, 6]: 13% | tolerability [3, 6]: generally well tolerated | partial responses [3, 7]: 25% | partial responses, number of patients [3, 7]: 4 patients | stable disease [3, 7]: 68.8% | stable disease, number of patients [3, 7]: 11 patients | disease control rate (DCR) [3, 8]: 93.8% | objective response rate (ORR) [3, 8]: 25.0%

O=C(c1cc(Cc2n[nH]c(=O)c3ccccc23)ccc1F)N1CCN(C(=O)C2CC2)CC1 [olaparib]
median PFS ([4]; gBRCA patients after ≥16 weeks of platinum-based therapy, vs. placebo): 7.4 months | HR (PFS vs. placebo) ([4]; gBRCA patients, p=0.004): 0.53

FOLFIRINOX
median progression-free survival (PFS) [5]: 6.4 months | overall survival (OS) [5]: 11.1 months
